Structures are written as SMILES. Activity calls are given as the source filed them. No cut-off for these calls is given here.

Series [1] relates to Escherichia coli. The series can be described thus: Antibacterial activity against Escherichia coli transfected with Vibrio fischeri lux operon assessed as log reduction of bioluminescence at 20 uM incubated for 10 mins in dark followed by 36 J cm'-2 white light irradiation for 150 mins by luminometry relative to control. The series is classed as functional.
Series [2] concerns Escherichia coli. Kind of series: Antibacterial activity against Escherichia coli transfected with Vibrio fischeri lux operon assessed as log reduction of bioluminescence at 5 uM incubated for 10 mins in dark followed by 43.2 J cm'-2 white light irradiation for 180 mins by luminometry relative to control. The series is classed as functional.
Series [3] relates to Escherichia coli. Kind of series: Dark toxicity in recombinant Escherichia coli transfected with Vibrio fischeri lux operon at 20 uM after 10 mins by luminometry. The format is organism-based. The note with it: in vivo.
Series [4] relates to Escherichia coli. The series can be described thus: Dark toxicity in recombinant Escherichia coli transfected with Vibrio fischeri lux operon at 5 uM after 10 mins by luminometry. The series is classed as organism-based. The note with it: in vivo.
Series [5] deals with Escherichia coli. Kind of series: Antibacterial activity against Escherichia coli transfected with Vibrio fischeri lux operon assessed as log reduction of bioluminescence at 20 uM incubated for 10 mins in dark followed by 43.2 J cm'-2 white light irradiation for 180 mins by luminometry relative to control. The format is functional.
The test system of series [6] is Escherichia coli. Kind of series: Antibacterial activity against Escherichia coli assessed as log reduction of bioluminescence at 1 uM incubated for 30 mins followed by 10 J cm'-2 laser light irradiation relative to control. The format is functional.
The test system of series [7] is Staphylococcus aureus. Kind of series: Antibacterial activity against Staphylococcus aureus assessed as log reduction of bioluminescence at 1 uM incubated for 30 mins followed by 10 J cm'-2 laser light irradiation relative to control. The format is functional.

With `C[N+]1(C)CC2c3nc(c(-c4c(F)c(F)c(F)c(F)c4F)c4ccc([nH]4)c(-c4c(F)c(F)c(F)c(F)c4F)c4nc(c(-c5c(F)c(F)c(F)c(F)c5F)c5ccc([nH]5)c3-c3c(F)c(F)c(F)c(F)c3F)C=C4)C2C1.[I-]` (configuration not stated), the result in series [1] was Active. Moreover, the FC in series [2] turned out to be 0.77. Moreover, the Activity entry in series [3] is “Non-toxic”.

For `CN1CC2c3nc(c(-c4c(F)c(F)c(F)c(F)c4F)c4ccc([nH]4)c(-c4c(F)c(F)c(F)c(F)c4F)c4nc(c(-c5c(F)c(F)c(F)c(F)c5F)c5ccc([nH]5)c3-c3c(F)c(F)c(F)c(F)c3F)C=C4)C2C1` (configuration not stated), the FC in series [2] was determined as 0.57. Besides, in series [4], the Activity entry is given as “Non-toxic”.

On to `C[N+]1(C)CC2c3nc(c(-c4c(F)c(F)c(F)c(F)c4F)c4ccc([nH]4)c(-c4c(F)c(F)c(F)c(F)c4F)c4nc(c(-c5c(F)c(F)c(F)c(F)c5F)c5[nH]c(c3-c3c(F)c(F)c(F)c(F)c3F)C3C[N+](C)(C)CC53)C=C4)C2C1.[I-].[I-]` (configuration not stated), for which the results for the FC in series [1] and in series [2] were 6.1 and more than 5, respectively. In addition, the Activity entry in series [3] was “Non-toxic”.

For the compound `CN1CC2c3nc(c(-c4c(F)c(F)c(F)c(F)c4F)c4ccc([nH]4)c(-c4c(F)c(F)c(F)c(F)c4F)c4nc(c(-c5c(F)c(F)c(F)c(F)c5F)c5[nH]c(c3-c3c(F)c(F)c(F)c(F)c3F)C3CN(C)CC53)C=C4)C2C1` (configuration not stated), the FC in series [5] was 0.24. Besides, the Activity entry in series [3] is reported as “Non-toxic”.

In the case of `CC1(C)Cc2cc3[nH]c(cc4nc(cc5[nH]c(cc1n2)cc5C(=O)NCCC[N+](C)(CCC[N+](C)(C)C)CCC[N+](C)(C)C)CC4(C)C)cc3C(=O)NCCC[N+](C)(CCC[N+](C)(C)C)CCC[N+](C)(C)C`, the FC in series [6] and in series [7] was 6 each time.

Source of the values: ChEMBL document CHEMBL3112559, “Photodynamic inactivation of bioluminescent Escherichia coli by neutral and cationic pyrrolidine-fused chlorins and isobacteriochlorins” (Bioorg Med Chem Lett, 2014).
